Test results taken from patent US20240285614A1, “PHENOL RIBONUCLEOTIDE REDUCTASE (RNR) INHIBITORS AND USES THEREOF” (Boundless Bio, Inc., priority 2023, published 2024).

Tests used:
[1] = target: T1, RNR (RNR1:RNR2 1:1) (Homo sapiens, UniProt P23921+P31350); assay: RNR enzyme activity, rapid-fire mass spectrometry (RF/MS) assay; format: biochemical; conditions: RNR 50 nM, 1:1 (RNR1:RNR2); CDP 5 μM; ATP 1 mM; 37° C., 45 min; compounds screened up to 50 μM
T1 sequence (P23921 1-792): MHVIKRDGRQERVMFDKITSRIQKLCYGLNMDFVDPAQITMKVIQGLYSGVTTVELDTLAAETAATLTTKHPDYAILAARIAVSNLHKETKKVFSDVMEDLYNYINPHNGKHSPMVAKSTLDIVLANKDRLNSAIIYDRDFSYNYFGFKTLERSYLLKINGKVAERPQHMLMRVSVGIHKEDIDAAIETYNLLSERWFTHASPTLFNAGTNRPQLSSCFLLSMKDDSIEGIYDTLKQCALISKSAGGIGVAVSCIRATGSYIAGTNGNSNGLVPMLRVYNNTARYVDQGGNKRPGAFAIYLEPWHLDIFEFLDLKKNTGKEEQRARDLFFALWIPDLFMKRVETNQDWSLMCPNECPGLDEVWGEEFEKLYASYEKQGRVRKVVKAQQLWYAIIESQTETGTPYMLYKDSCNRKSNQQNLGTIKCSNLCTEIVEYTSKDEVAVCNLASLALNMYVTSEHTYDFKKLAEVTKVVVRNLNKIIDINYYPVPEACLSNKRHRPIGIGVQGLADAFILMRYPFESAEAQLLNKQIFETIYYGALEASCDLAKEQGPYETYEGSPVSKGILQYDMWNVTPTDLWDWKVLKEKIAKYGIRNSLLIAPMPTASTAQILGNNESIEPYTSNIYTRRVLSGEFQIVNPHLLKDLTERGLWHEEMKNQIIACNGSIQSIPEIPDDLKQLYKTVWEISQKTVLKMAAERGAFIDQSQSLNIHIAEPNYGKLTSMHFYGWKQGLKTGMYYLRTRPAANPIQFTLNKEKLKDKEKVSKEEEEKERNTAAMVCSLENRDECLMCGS
T1 sequence (P31350 1-389): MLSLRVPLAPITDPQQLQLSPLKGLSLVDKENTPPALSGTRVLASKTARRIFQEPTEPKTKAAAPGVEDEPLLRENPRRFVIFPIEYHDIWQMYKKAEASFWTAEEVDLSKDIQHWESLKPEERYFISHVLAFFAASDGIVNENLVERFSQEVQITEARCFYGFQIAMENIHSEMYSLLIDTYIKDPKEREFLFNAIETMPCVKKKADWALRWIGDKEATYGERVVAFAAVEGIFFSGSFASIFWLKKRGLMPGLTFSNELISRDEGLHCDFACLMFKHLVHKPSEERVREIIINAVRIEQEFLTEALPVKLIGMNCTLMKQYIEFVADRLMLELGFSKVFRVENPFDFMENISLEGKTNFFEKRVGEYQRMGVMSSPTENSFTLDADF
Description: A rapid-fire mass spectrometry (RF/MS) assay was used to assess RNR enzyme activity using a 384 well plate and a robotic platform.
The plate layout included two validated reference compounds (Triapine (3-AP) and Hydroxyurea (HU)): • A dose response in duplicate, top concentration: 5 μM (3-AP) and 250 μM (HU), semi-log • dilutions. • Spike wells in triplicate randomly spotted at four concentrations: • 250 μM, 100 μM, 30 μM and 2 μM for HU • 5 μM, 2 μM, 0.6 μM and 0.04 μM for 3-AP
First, the multidrop pipes were saturated for 30 minutes with enzymatic solution. Then 30 μL of Stop solution was distributed in column 24. Next, 15 μL of enzyme was distributed in column 1 to 24. Next, a pre-incubation step of 15 minutes at room temperature occurred, followed by distribution of 15 μL of substrate solution (column 1 to 24). Next, the plate was incubated for 45 minutes at 37° C. 30 μL of Stop solution was distributed to columns 1 to 23.
The final parameters for the enzyme reactions were: • Incubation: 37° C., 45 min • [CDP]: 5 μM: [ATP]: 1 mM; [NADPH]: No • [RNR]final: 50 nM with 1:1 (RNR1:RNR2) ratio • Final volume: 30 μL • Stop solution: 6% HCOOH containing 2 μM of 15

[2] = system: pCHK1 (S345) in Colo320 DM cells; assay: Alphalisa assay, detection of pCHK1 (S345) in Colo320 DM cells; format: cell-based; conditions: Homo sapiens, COLO 320DM, compound incubation overnight (approximately 16 hours)
Description: Colo320 DM cells (ATCC #CCL-220, derived from human colorectal adenocarcinoma, Dukes' type C) were seeded on a 96-well, cell culture treated assay plate at a density of 50,000 cells/well in 200 μL of RPMI-1640 media supplemented with 10% Fetal Bovine Serum and incubated at 37° C. overnight. The following day, test compound dilutions were added directly to the plated cells by a Tecan digital dispenser to a final DMSO concentration of <0.5%, and incubated at 37° C. overnight (approximately 16 hours). The following day all cull culture media was removed from the cells. 75 μL of 1× AlphaLisa lysis buffer was added to each well and plates were agitated on a shaker for 30 minutes at room temperature. The lysis of cells and detection of pCHK1 (S345) were performed with regents contained within the AlphaLisa Sure Fire assay kit (Perkin Elmer #ALSU-PCHK1-A) according to the manufacturer's instructions. 10 μL of each lysate was then transferred to a white, 384-well assay plate (Perkin Elmer #6008280), 5 μL of Acceptor mix was then added to each well of lysate in the white, 384-well assay plate and incubated in the dark at room temperature for 60 minutes. 5 μL of Donor mix was then added to each well of the white, 384-well assay plate in subdued light and incubated at room temperature for 60 minutes. Plates were read on an Alpha Technology-compatible plate reader using standard AlphaLisa settings.

IC50 [1]: 0.1 to 0.5 µM | IC50 [2]: 5 to 10 µM
Structure (SMILES): O=S(=O)(c1ccc2cc[nH]c2c1)N1CC2CN(c3ccc(O)cc3)CCC21 (centres unmarked) [compound 51, 4-(7-((1H-indol-6-yl)sulfonyl)-3,7-diazabicyclo[4.2.0]octan-3-yl)phenol]
